Test results: PubChem BioAssay (NCI)
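96-well plates; 48 h exposure; 5 concentrations. Endpoints by linear interpolation between flanking doses. Not reached: highest tested concentration assigned. Here, GI50 denotes the concentration required for 50% inhibition of growth. The concentration for full growth arrest is given as TGI.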

Tests used:
Test in all cases: NCI-60 cell line screen, 48 h
LXFL 529 NSCLC = system: LXFL 529 NSCLC
DLD-1 colon = system: DLD-1 colon
MDA-N = system: MDA-N
SNB-78 CNS = system: SNB-78 CNS
XF 498 CNS = system: XF 498 CNS
DMS 114 small cell lung = system: DMS 114 small cell lung
KM20L2 colon = system: KM20L2 colon
DMS 273 small cell lung = system: DMS 273 small cell lung
RXF-631 renal = system: RXF-631 renal

SMILES	TGI (LXFL 529 NSCLC)	TGI (DLD-1 colon)	TGI (MDA-N)	TGI (SNB-78 CNS)	TGI (XF 498 CNS)	TGI (DMS 114 small cell lung)	TGI (KM20L2 colon)	TGI (DMS 273 small cell lung)	other results
[CH3][Sn]([CH3])([CH3])[O]C(=O)C(O)c1ccccc1 (stereo not drawn)	> 28.4 µM	> 100 µM	15.9 µM	> 100 µM	20.9 µM	31.2 µM	9.42 µM	14 µM	GI50 (LXFL 529 NSCLC): 2.98 µM; GI50 (DLD-1 colon): 4.93 µM; GI50 (MDA-N): 3.62 µM; GI50 (SNB-78 CNS): 42.7 µM; GI50 (XF 498 CNS): 2.92 µM; GI50 (DMS 114 small cell lung): 5.78 µM; GI50 (KM20L2 colon): 2.98 µM; GI50 (DMS 273 small cell lung): 3.01 µM
O=c1c2cc(Br)ccc2[nH]c(=S)n1-c1ccccc1		> 100 µM		> 100 µM			> 100 µM	> 100 µM	TGI (RXF-631 renal): > 100 µM
CC(=O)NC1CCCN(O)C(=O)/C=C(/C)CCOC(=O)C(NC(C)=O)CCCN(O)C(=O)/C=C(/C)CCOC(=O)C(NC(C)=O)CCCN(O)C(=O)/C=C(/C)CCOC1=O.[Fe] (stereo not drawn)			> 100 µM						GI50 (MDA-N): > 100 µM
O=NNc1ccc(Sc2ccc3ccccc3c2)cn1			> 100 µM						
Cc1nn2c(=O)n(-c3cccc(-n4nnc5c(-c6ccccc6)c(C)nn5c4=O)c3C)nnc2c1-c1ccccc1	> 100 µM	91.6 µM		> 100 µM	40.1 µM	30.2 µM	42.1 µM	> 100 µM	
CC(C)(C)C1CCC(CI)(N=[N+]=[N-])CC1 (stereo not drawn)	> 100 µM	> 100 µM		> 100 µM	> 100 µM	> 100 µM	> 100 µM	> 100 µM	
CN(C)CCCNC(=O)c1cccc2nc3ccccc3nc12	> 95.2 µM	> 100 µM		> 71.6 µM	2.1 µM	30 µM	> 100 µM	> 100 µM	TGI (RXF-631 renal): > 100 µM
Cc1cc2oc(=O)c(Cl)c(Cl)c2c(C)c1Cl			10.8 µM						
O=C1/C(=C\c2ccc([N+](=O)[O-])cc2)CS(=O)(=O)C/C1=C/c1ccc([N+](=O)[O-])cc1			1.63 µM						GI50 (MDA-N): 0.305 µM
O=C(NCCSSCCNC(=O)/C(Cc1ccc(O)c(Br)c1)=N/O)/C(Cc1ccc(O)c(Br)c1)=N/O			6.99 µM						
O=C1C=CC(=O)c2c1cc1ccccc1c2O	3.99 µM	3.24 µM	18.5 µM	10.5 µM	8.39 µM		40.2 µM	29.5 µM	
CC[C@@]1(OC(=O)C(N)CCC(=O)O)C(=O)OCc2c1cc1n(c2=O)Cc2cc3ccccc3nc2-1 (stereo partly drawn)	5.75 µM	> 100 µM		> 100 µM	2.04 µM	4.42 µM	5.08 µM	0.29 µM	
NC(Cn1ccc(=O)c(O)c1)C(=O)O (stereo not drawn)			> 100 µM						
CCOc1ccc(/C=N\N2C(=O)c3ccccc3C2=O)cc1	> 100 µM	> 100 µM		> 100 µM	> 100 µM	> 100 µM	> 100 µM	> 100 µM	TGI (RXF-631 renal): > 100 µM
CC[C@@]1(O)C(=O)OCc2c1cc1n(c2=O)Cc2cc3c(Cl)c4c(cc3nc2-1)OCO4			> 100 µM						
COC(=O)[C@H]1CC(=O)C=C2CCCC21 (stereo partly drawn)	> 100 µM	> 100 µM			> 100 µM	> 100 µM		> 100 µM	TGI (RXF-631 renal): > 100 µM
O=S(=O)(CC(O)C(Cl)(Cl)Cl)NNc1ccccc1 (stereo not drawn)			> 100 µM						
C=C(CS(=O)(=O)c1ccccc1)C(=O)OCC	27 µM	21.4 µM			33.4 µM	25.7 µM	45.3 µM	35.5 µM	TGI (RXF-631 renal): 16.8 µM
